Assay results taken from US20160158179A1, “NANOEMULSION THERAPEUTIC COMPOSITIONS AND METHODS OF USING THE SAME” (THE REGENTS OF THE UNIVERSITY OF MICHIGAN, priority 2008, published 2016).
Values after ≈ are worked out from the molar mass of the structure shown.

Tests used:
Acinetobacter baumannii = test: MIC and MBC determination (CLSI, alamar blue); settings: Acinetobacter
Pseudomonas aeruginosa = test: MIC and MBC determination (CLSI, alamar blue), CF isolates; settings: Pseudomonas
Burkholderia cenocepacia = test: as above
[1] = test system: Stenotrophomonas maltophilia; test: as above; settings: Stenotrophomonas
[2] = test system: methicillin-resistant Staphylococcus aureus (MRSA) clinical isolates; test: MIC and MBC susceptibility assays (CLSI); assay type: cell-based; settings: for MIC50 (15): MRSA clinical isolates, value at rank 15 of 29
[3] = test system: H. influenzae clinical isolates; test: MIC and MBC susceptibility assays (CLSI); assay type: cell-based, Haemophilus influenzae; settings: for MIC 50: Haemophilus influenzae, all H. influenzae strains of Table 6, control antibiotics
[4] = test system: H. influenzae clinical isolates; settings: ATCC H. influenzae 49247 quality control isolate; acceptable QC range; cited from earlier work

| SMILES | MIC 50 (Acinetobacter baumannii) [mg/L] | MIC 90 (Acinetobacter baumannii) [mg/L] | MIC 90 (Burkholderia cenocepacia; Burkholderia) [mg/L] | MIC 50 [1] [mg/L] | MIC 90 [1] [mg/L] | MIC 50 [3] [mg/L] | other results |
| --- | --- | --- | --- | --- | --- | --- | --- |
| C[C@H]1COc2c(N3CCN(C)CC3)c(F)cc3c(=O)c(C(=O)O)cn1c23 [Levofloxacin] | 16 (≈ 44.3 µM) | >16 | 8 (≈ 22.1 µM) | 2 (≈ 5.53 µM) | 8 (≈ 22.1 µM) | – | MIC 50 (Pseudomonas aeruginosa): 0.5 mg/L (≈ 1.38 µM); MIC 90 (Pseudomonas aeruginosa): 8 mg/L (≈ 22.1 µM); MIC 50 (Burkholderia cenocepacia; Burkholderia cenocepacia): 2 mg/L (≈ 5.53 µM); MIC 90 (Burkholderia cenocepacia; Burkholderia cenocepacia): 8 mg/L (≈ 22.1 µM) |
| CO[C@@]1(NC(=O)Cc2cccs2)C(=O)N2C(C(=O)O)=C(COC(N)=O)CS[C@@H]21 [Cefoxitin] | >256 | >256 | 256 (≈ 599 µM) | >256 | >256 | – | MIC 50 (Pseudomonas aeruginosa): >256 mg/L; MIC 90 (Pseudomonas aeruginosa): >256 mg/L |
| Cc1onc(-c2ccccc2)c1C(=O)N[C@@H]1C(=O)N2[C@@H]1SC(C)(C)[C@@H]2C(=O)O [Ox] | – | – | – | – | – | – | MIC50 (15) [2]: >16 mg/L |
| CN[C@H](CC(C)C)C(=O)N[C@H]1C(=O)N[C@@H](CC(N)=O)C(=O)N[C@H]2C(=O)N[C@H]3C(=O)N[C@H](C(=O)N[C@H](C(=O)O)c4cc(O)cc(O)c4-c4cc3ccc4O)[C@H](O)c3ccc(c(Cl)c3)Oc3cc2cc(c3O[C@@H]2O[C@H](CO)[C@@H](O)[C@H](O)[C@H]2O[C@H]2C[C@](C)(N)[C@H](O)[C@H](C)O2)Oc2ccc(cc2Cl)[C@H]1O [vancomycin] | – | – | – | – | – | – | bactericidal activity (MBC90 compared to MIC90) ([2]; clinical isolates of MRSA): bactericidal |
| CCC[C@@H]1C[C@@H](C(=O)N[C@@H]([C@H]2O[C@H](SC)[C@H](O)[C@@H](O)[C@H]2O)[C@H](C)Cl)N(C)C1 [Cli, clindamycin] | – | – | – | – | – | 16 (≈ 37.6 µM) | – |
| CC(C)(O/N=C(\C(=O)N[C@@H]1C(=O)N2C(C(=O)[O-])=C(C[n+]3ccccc3)CS[C@H]12)c1csc(N)n1)C(=O)O [Ceftazidime] | >32 | >32 | 16 (≈ 29.3 µM) | >32 | >32 | – | MIC 50 (Burkholderia cenocepacia; Burkholderia cenocepacia): 8 mg/L (≈ 14.6 µM); MIC 90 (Burkholderia cenocepacia; Burkholderia cenocepacia): 16 mg/L (≈ 29.3 µM) |
| CC[C@H]1OC(=O)[C@H](C)[C@@H](O[C@H]2C[C@@](C)(OC)[C@@H](O)[C@H](C)O2)[C@H](C)[C@@H](O[C@@H]2O[C@H](C)C[C@H](N(C)C)[C@H]2O)[C@](C)(O)C[C@@H](C)CN(C)[C@H](C)[C@@H](O)[C@]1(C)O [Azi, azithromycin] | – | – | – | – | – | 2 (≈ 2.67 µM) | susceptibility of the majority of isolates by MIC90 values [3]: susceptible; QC MIC range [4]: A (QC MIC range is 1-4) μg/ml |
| CC[C@H]1OC(=O)[C@H](C)[C@@H](O[C@H]2C[C@@](C)(OC)[C@@H](O)[C@H](C)O2)[C@H](C)[C@@H](O[C@@H]2O[C@H](C)C[C@H](N(C)C)[C@H]2O)[C@](C)(O)C[C@@H](C)C(=O)[C@H](C)[C@@H](O)[C@]1(C)O [Eryth] | – | – | – | – | – | – | MIC50 (15) [2]: 64 mg/L (≈ 87.2 µM) |
| CC1(C)S[C@@H]2[C@H](NC(=O)[C@H](N)c3ccccc3)C(=O)N2[C@H]1C(=O)O [Amp, ampicillin] | – | – | – | – | – | > 32 | QC MIC range [4]: B (QC MIC range is 2-8) μg/ml |
